Inhibition and IC50 data for eleven molecules are collected here from patent US10597362B2, “3-aminoalkylated indole derivative, method for the preparation thereof, and pharmaceutical composition comprising the same” (Seoul National University Hospital, priority 2016, dated 2020).

Each structure is given as a SMILES string.

One assay has as its system hResistin. The assay is described as follows: Ability to inhibit TNF-α secretion by hResistin (THP-1, ELISA). Format: cell-based. Conditions: THP-1 human monocyte cell line; TNF-α secretion by hResistin; concentration 5 uM. The procedure:
Using THP-1 (human monocyte) cell line and ELISA system, the abilities to inhibit TNF-α secretion by hResistin (IC50) were evaluated for the compounds prepared in the above examples. The compounds target hResistin, and the abilities of the compounds to inhibit TNF-α secretion by human recombinant Resistin in human monocyte (THP-1) were evaluated. The abilities to inhibit TNF-α secretion were assessed by ELISA quantifying the amount of antibody with the enzyme as a marker using an antigen-antibody reaction.
Specifically, the cultured cells were spun down at 1,500 rpm for 2 minutes, the supernatant was removed and then the cells were re-suspended in 10 mL of complete RPMI-1640 medium. After counting the number of cells using Luna™ Automated Cell Counter, cells were plated into 96-well assay plates at 50 μL per well. The cells cultured for 24 hours were treated with the test substances in accordance with the concentration for 1 hour, and then the supernatant was collected and subjected to ELISA assay. In the ELISA assay, the absorbance at 450 nm (OD450 nm) was measured using Flexstation 3. The ability of each test substance to inhibit TNF-α secretion (IC50) and its inhibition at a concentration of 5 uM are shown in Table 1 below.
A word on the inhibition: it is the change of the read-out against control, counted positive when it falls. A high value points to strong suppression. In turn, `CN1CCN(C(c2ccc(Cl)cc2)c2c(-c3ccccc3)[nH]c3ccccc23)CC1` (stereo not drawn) [Example 2, 3-((4-chlorophenyl)(4-methylpiperazin-1-yl)methyl)-2-phenyl-1H-indole] gave an inhibition at 5 µM of 70.3%.

Staying with this assay, now noted: THP-1 human monocyte cell line; human recombinant Resistin; ELISA OD450 nm; 1 hour treatment.
As usually defined, the IC50 is the point on the concentration scale where inhibition reaches its midpoint. Consider `CN1CCN(C(c2ccc(Cl)cc2)c2c(-c3ccccc3)[nH]c3ccccc23)CC1` (stereo not drawn) [Example 2, 3-((4-chlorophenyl)(4-methylpiperazin-1-yl)methyl)-2-phenyl-1H-indole], for which the IC50 was found to be 4400 nM.
With `CN1CCN(C(c2ccccc2)c2c(-c3ccccc3)[nH]c3ccccc23)CC1` (stereo not drawn) [Example 6, 3-((4-methylpiperazin-1-yl)(phenyl)methyl)-2-phenyl-1H-indole], the IC50 is 2800 nM.
For the molecule `CN1CCN(C(c2cccc(F)c2)c2c(-c3ccccc3)[nH]c3ccccc23)CC1` (stereo not drawn) [Example 7, 3-((3-fluorophenyl)(4-methylpiperazin-1-yl)methyl)-2-phenyl-1H-indole], the IC50 was found to be 2000 nM.
For `CN1CCN(C(c2ccc(C(F)(F)F)cc2)c2c(-c3ccccc3)[nH]c3ccccc23)CC1` (stereo not drawn) [Example 8, 3-((4-methylpiperazin-1-yl)(4-(trifluoromethyl)phenyl)methyl)-2-phenyl-1H-indole], the concentration for half-maximal inhibition (IC50) worked out at 1000 nM.
`Fc1ccc(C(c2c(-c3ccccc3)[nH]c3ccccc23)N2CCOCC2)cc1` (stereo not drawn) [Example 9, 4-((4-fluorophenyl)(2-phenyl-1H-indol-3-yl)methyl)morpholine]: the IC50 is 3500 nM.
Take `CN1CCN(C(c2ccc(F)cc2)c2c(-c3ccccc3)[nH]c3ccccc23)CC1` (stereo not drawn) [Example 10, 3-((4-fluorophenyl)(4-methylpiperazin-1-yl)methyl)-2-phenyl-1H-indole]: the IC50 amounted to 1700 nM.
For the molecule `CN1CCN(C(c2ccc(Cl)cc2)c2c(-c3ccc(Cl)cc3)[nH]c3ccccc23)CC1` (stereo not drawn) [Example 12, 2-(4-chlorophenyl)-3-((4-chlorophenyl)(4-methylpiperazin-1-yl)methyl)-1H-indole], the IC50 was 400 nM.
With `CN1CCN(C(c2cccc(F)c2)c2c(-c3ccc(Cl)cc3)[nH]c3ccccc23)CC1` (stereo not drawn) [Example 14, 2-(4-chlorophenyl)-3-((3-fluorophenyl)(4-methylpiperazin-1-yl)methyl)-1H-indole], the IC50 was determined as 3200 nM.
Regarding `CN1CCN(C(c2ccc(F)cc2)c2c(-c3ccc(Cl)cc3)[nH]c3ccccc23)CC1` (stereo not drawn) [Example 15, 2-(4-chlorophenyl)-3-((4-fluorophenyl)(4-methylpiperazin-1-yl)methyl)-1H-indole], the IC50 worked out at 1500 nM.
In the case of `CCN1CCN(C(c2ccc(F)cc2)c2c(-c3ccccc3)[nH]c3ccccc23)CC1` (stereo not drawn) [Example 18, 3-((4-ethylpiperazin-1-yl)(4-fluorophenyl)methyl)-2-phenyl-1H-indole], the IC50 was found to be 1700 nM.
Take `CCN1CCN(C(c2ccc(C(F)(F)F)cc2)c2c(-c3ccccc3)[nH]c3ccccc23)CC1` (stereo not drawn) [Example 19, 3-((4-ethylpiperazin-1-yl)(4-(trifluoromethyl)phenyl)methyl)-2-phenyl-1H-indole]: the IC50 came to 1700 nM.
